Values quoted from earlier work, collected in patent publication US6602521B1, “Multiplex drug delivery system suitable for oral administration” (Impax Pharmaceuticals, Inc., priority 1998, dated 2003).

In the case of O=[N+]([O-])O[C@@H]1CO[C@H]2[C@@H]1OC[C@@H]2O [Isosorbide mononitrate, 1,4:3,6-dihydro-D-glucitrol 5-nitrate], the “absorption from the gastrointestinal tract” value (gastrointestinal tract) is given as “rapidly and completely absorbed”, the rate of clearance (healthy young adults vs patients with various degrees of renal, hepatic, or cardiac dysfunction) is given as “the same” and the “first pass metabolism in the liver” value (in humans) is given as “not subject to first pass metabolism”. The overall elimination half-life (in vivo) was “about 6 hours”.
